Laboratory results taken from patent publication US10570122B2, “Compounds with anti-tumoral activity” (AB Science, priority 2015, dated 2020).
pIC50: −log10 of the molar value.

Assays:
A549 = experiment: CellTiter-Blue cell-based survival/proliferation assay, A549; conditions: Homo sapiens; A549 lung tumor cell line, 48 h
Method in brief: (§1)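 Tenfold compound dilutions (0–10 μM) were added to 1·10^4 cells/well. Plates incubated 48 h at 37 °C. CellTiter-Blue reduction (4 h, 37 °C) was read as fluorescence at 590 nm, background-corrected with a cell-free blank.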

H1299 = experiment: CellTiter-Blue cell-based survival/proliferation assay, H1299; conditions: Homo sapiens, NCI-H1299; H1299 lung tumor cell line, 48 h
Method in brief: as §1

HEP2 = experiment: CellTiter-Blue cell-based survival/proliferation assay, HEP2; conditions: Homo sapiens, HEp-2; HEP2 head & neck tumor cell line, 48 h
Method in brief: as §1

AGS = experiment: CellTiter-Blue cell-based survival/proliferation assay, AGS; conditions: Homo sapiens; AGS stomach tumor cell line, 48 h
Method in brief: as §1

DU145 = experiment: CellTiter-Blue cell-based survival/proliferation assay, DU145; conditions: Homo sapiens, DU-145; DU145 prostate tumor cell line, 48 h
Method in brief: as §1

CALU6 = experiment: CellTiter-Blue cell-based survival/proliferation assay, CALU6; conditions: Homo sapiens, Calu-6; CALU6 lung tumor cell line, 48 h
Method in brief: as §1

SW579 = experiment: CellTiter-Blue cell-based survival/proliferation assay, SW579; conditions: Homo sapiens; SW579 head & neck tumor cell line, 48 h
Method in brief: as §1

MESSA = experiment: CellTiter-Blue cell-based survival/proliferation assay, MESSA; conditions: Homo sapiens, MES-SA; MESSA ovary tumor cell line, 48 h
Method in brief: as §1

A4513 = experiment: CellTiter-Blue cell-based survival/proliferation assay, A4513; conditions: Homo sapiens; A4513 Ewing cell line, 48 h
Protocol: (§2) Cell-Based Proliferation Screening of Compounds
(§3) CellTiter-Blue cell-based survival/proliferation assay (Promega G8080) was performed on tumor cell lines. A total of 1·10^4 cells/well/50 μl were seeded in a 96-wells plate. Treatment was initiated by addition of a 2× drug solution of 1/10 serial dilutions ranging from 0 to 10 μM. Cells were grown for 48 h at 37° C. and then incubated with 10 μl/well of Promega CellTiter-Bleue reagent for 4 h at 37° C. The amount of resorufin dye formed was quantified by its fluorescence emission at 590 nm using a scanning multiwell spectrophotometer (OPTIMA, BMG labtech, France). A blank well without cells was used as a background control for the spectrophotometer.

MDAMB231 = experiment: CellTiter-Blue cell-based survival/proliferation assay, MDAMB231; conditions: Homo sapiens, MDA-MB-231; MDAMB231 breast tumor cell line, 48 h
Method in brief: as §1

KARPAS299 = experiment: CellTiter-Blue cell-based survival/proliferation assay, KARPAS299; conditions: Homo sapiens, KARPAS-299, Lymphoma cell line KARPAS299, 48 h, read-out: Anti-tumoral activity (measured IC50) KARPAS299
Method in brief: as §1

OPM2 = experiment: CellTiter-Blue cell-based survival/proliferation assay, OPM2; conditions: Homo sapiens, OPM-2, Myeloma cell line OPM2, 48 h, read-out: Anti-tumoral activity (measured IC50) OPM2
Method in brief: as §1

DLD1 = experiment: CellTiter-Blue cell-based survival/proliferation assay, DLD1; conditions: Homo sapiens, DLD-1; DLD_1 colorectal tumor cell line, 48 h
Method in brief: as §1

HCT116 = experiment: CellTiter-Blue cell-based survival/proliferation assay, HCT116; conditions: Homo sapiens, HCT-116; HCT116 colorectal tumor cell line, 48 h
Method in brief: as §1

HGC27 = experiment: CellTiter-Blue cell-based survival/proliferation assay, HGC27; conditions: Homo sapiens, HGC-27; HGC27 stomach tumor cell line, 48 h
Method in brief: as §1

BT20 = experiment: CellTiter-Blue cell-based survival/proliferation assay, BT20; conditions: Homo sapiens, BT-20; BT20 breast tumor cell line, 48 h
Method in brief: as §1

HL60 = experiment: CellTiter-Blue cell-based survival/proliferation assay, HL60; conditions: Homo sapiens, HL-60, Leukemia cell line HL60, 48 h, read-out: Anti-tumoral activity (measured IC50) HL60
Method in brief: as §1

A498 = experiment: CellTiter-Blue cell-based survival/proliferation assay, A498; conditions: Homo sapiens; A498 kidney tumor cell line, 48 h
Method in brief: as §1

U118 = experiment: CellTiter-Blue cell-based survival/proliferation assay, U118; conditions: Homo sapiens; U118 glioblastoma cell line, 48 h
Protocol: as §2, §3

HUT78 = experiment: CellTiter-Blue cell-based survival/proliferation assay, HUT78; conditions: Homo sapiens, Lymphoma cell line HUT78, 48 h, read-out: Anti-tumoral activity (measured IC50) HUT78
Method in brief: as §1

PLCPRF5 = experiment: CellTiter-Blue cell-based survival/proliferation assay, PLCPRF5; conditions: Homo sapiens, PLC-PRF-5; PLC_PRF5 liver tumor cell line, 48 h
Method in brief: as §1

U87MG = experiment: CellTiter-Blue cell-based survival/proliferation assay, U87MG; conditions: Homo sapiens, U-87 MG; U87_MG glioblastoma cell line, 48 h
Protocol: as §2, §3

CLS354 = experiment: CellTiter-Blue cell-based survival/proliferation assay, CLS354; conditions: Homo sapiens, CLS-354; CLS354_4 head & neck tumor cell line, 48 h
Method in brief: as §1

U2OS = experiment: CellTiter-Blue cell-based survival/proliferation assay, U2OS; conditions: Homo sapiens; U2OS osteosarcoma cell line, 48 h
Protocol: as §2, §3

A375 = experiment: CellTiter-Blue cell-based survival/proliferation assay, A375; conditions: Homo sapiens, A-375; A375 melanoma cell line, 48 h
Protocol: as §2, §3

ACHN = experiment: CellTiter-Blue cell-based survival/proliferation assay, ACHN; conditions: Homo sapiens; ACHN kidney tumor cell line, 48 h
Method in brief: as §1

PC3 = experiment: CellTiter-Blue cell-based survival/proliferation assay, PC3; conditions: Homo sapiens, PC-3; PC3 prostate tumor cell line, 48 h
Method in brief: as §1

TOV112D = experiment: CellTiter-Blue cell-based survival/proliferation assay, TOV112D; conditions: Homo sapiens; TOV112D ovary tumor cell line, 48 h
Method in brief: as §1

MELWO = experiment: CellTiter-Blue cell-based survival/proliferation assay, MELWO; conditions: Homo sapiens; MEL_WO melanoma cell line, 48 h
Protocol: as §2, §3

PANC1 = experiment: CellTiter-Blue cell-based survival/proliferation assay, PANC1; conditions: Homo sapiens, PANC-1; PANC_1 pancreas tumor cell line, 48 h
Method in brief: as §1

REC1 = experiment: CellTiter-Blue cell-based survival/proliferation assay, REC1; conditions: Homo sapiens, Lymphoma cell line REC1, 48 h, read-out: Anti-tumoral activity (measured IC50) REC1
Method in brief: as §1

HEPG2 = experiment: CellTiter-Blue cell-based survival/proliferation assay, HEPG2; conditions: Homo sapiens; HEPG2 liver tumor cell line, 48 h
Method in brief: as §1

BXPC3 = experiment: CellTiter-Blue cell-based survival/proliferation assay, BXPC3; conditions: Homo sapiens, BXPC-3; BXPC3 pancreas tumor cell line, 48 h
Method in brief: as §1

Row | Structure (SMILES) | pIC50 (A549) | pIC50 (H1299) | pIC50 (HEP2) | pIC50 (AGS) | pIC50 (DU145) | pIC50 (CALU6) | pIC50 (SW579) | pIC50 (MESSA) | pIC50 (A4513) | pIC50 (MDAMB231) | pIC50 (KARPAS299) | pIC50 (OPM2) | pIC50 (DLD1) | pIC50 (HCT116) | pIC50 (HGC27) | pIC50 (BT20) | pIC50 (HL60) | pIC50 (A498) | pIC50 (U118) | pIC50 (HUT78) | other results
1 | COc1ccc(C)c(Nc2ncc(-c3ccc(N4CCNC4=O)cc3)s2)c1 [Example 013, 1-{4-[2-(5-Methoxy-2-methyl-phenylamino)-thiazol-5-yl]-phenyl}-imidazolidin-2-one] | < 6.00 | < 6.00 | < 6.00 | < 6.00 | < 6.00 | < 6.00 | < 6.00 | < 6.00 | 6.30 to 7.00 | < 6.00 | 6.00 to 6.30 | 6.30 to 7.00 | < 6.00 | < 6.00 | < 6.00 | < 6.00 | 6.30 to 7.00 | < 6.00 | < 6.00 | 6.00 to 6.30 | pIC50 (PLCPRF5): < 6.00; pIC50 (U87MG): < 6.00; pIC50 (CLS354): < 6.00; pIC50 (U2OS): < 6.00; pIC50 (A375): < 6.00; pIC50 (ACHN): < 6.00; pIC50 (PC3): 6.00 to 6.30; pIC50 (TOV112D): < 6.00; pIC50 (MELWO): < 6.00; pIC50 (PANC1): < 6.00; pIC50 (REC1): 6.00 to 6.30; pIC50 (HEPG2): < 6.00; pIC50 (BXPC3): < 6.00
2 | CCOCc1ccc(C)c(Nc2ncc(-c3ccc(N4CCNC4=O)cc3)s2)c1 [Example 014, 1-{4-[2-(5-Ethoxymethyl-(2-methyl-phenylamino))-thiazol-5-yl]-phenyl}-imidazolidin-2-one] | < 6.00 | < 6.00 | < 6.00 | < 6.00 | < 6.00 | < 6.00 | < 6.00 | < 6.00 | 6.00 to 6.30 | < 6.00 | 6.30 to 7.00 | < 6.00 | < 6.00 | < 6.00 | < 6.00 | < 6.00 | < 6.00 | < 6.00 | < 6.00 | < 6.00 | pIC50 (PLCPRF5): < 6.00; pIC50 (U87MG): < 6.00; pIC50 (CLS354): < 6.00; pIC50 (U2OS): < 6.00; pIC50 (A375): < 6.00; pIC50 (ACHN): < 6.00; pIC50 (PC3): < 6.00; pIC50 (TOV112D): < 6.00; pIC50 (MELWO): < 6.00; pIC50 (PANC1): < 6.00; pIC50 (REC1): < 6.00; pIC50 (HEPG2): < 6.00; pIC50 (BXPC3): < 6.00
3 | CCOCc1ccc(C)c(Nc2nc(-c3ccc(-n4cccn4)cc3)cs2)c1 [Example 015, (5-Ethoxymethyl-2-methyl-phenyl)-[4-(4-pyrazol-1-yl-phenyl)-thiazol-2-yl]-amine] | < 6.00 | < 6.00 | < 6.00 | < 6.00 | < 6.00 | < 6.00 | < 6.00 | < 6.00 | 6.30 to 7.00 | < 6.00 | ≥ 7.00 | 6.30 to 7.00 | < 6.00 | < 6.00 | < 6.00 | < 6.00 | ≥ 7.00 | 6.00 to 6.30 | < 6.00 | ≥ 7.00 | pIC50 (PLCPRF5): < 6.00; pIC50 (U87MG): < 6.00; pIC50 (CLS354): ≥ 7.00; pIC50 (U2OS): < 6.00; pIC50 (A375): < 6.00; pIC50 (ACHN): < 6.00; pIC50 (PC3): ≥ 7.00; pIC50 (TOV112D): 6.00 to 6.30; pIC50 (MELWO): < 6.00; pIC50 (PANC1): < 6.00; pIC50 (REC1): ≥ 7.00; pIC50 (HEPG2): < 6.00; pIC50 (BXPC3): < 6.00
